System: DUX4
Assay: DUX4 transcript levels in FSHD primary muscle cell cultures treated with PR-619
Assay type: cell-based
Conditions: DUX4 expressing human primary FSHD myoblasts; 5 μM, 10 μM and 20 μM
Method: To further confirm the hypothesis that sumoylation is relevant for repression of DUX4, PR619 was used as inhibitor for the removal of SUMO substrates from their proteins. PR619 is a non-selective inhibitor of deubiquitinases and ubiquitin-like isopeptidases (like the family of SENP isopeptidases). […] DUX4 expressing human primary FSHD myoblasts were treated with 3 different concentrations of PR619 (5 μM, 10 μM and 20 μM) and cells were harvested for RNA isolation. […] Thus PR619 treatment of DUX4 expressing primary FSHD myotubes leads to DUX4 downregulation.
Human primary myoblast cell lines were originating from the University of Rochester bio repository (http://www.urmc.rochester.edu/fields-center/). Muscle samples were obtained after subjects were consented under a protocol approved by the institutional review board at the University of Rochester. […]
Myoblast and myotube samples were harvested for RNA isolation by adding QIAzol lysis reagent (#79306 Qiagen N.V., Venlo, The Netherlands). […] Gene specific cDNA products were quantified by qPCR in duplicate using SYBR green master mix supplemented with gene specific primers (table S2) using the CFX96 system (Bio-Rad, Veenendaal, The Netherlands). Data were analyzed by Bio-Rad CFX manager version 3.0 (Bio-Rad) using GAPDH and GUSB as reference genes.

## N#CSc1cc(SC#N)c(N)nc1N [PR-619, 2,6-Diamino-3,5-dithiocyanopyridine]
  DUX4 transcript levels: decreased in cells treated with PR-619 in a dose dependent manner
